Experimental data from patent US20040029905A1, “Use of weak opioids and mixed opioid agonists/antagonists for treatment of urinary incontinence” (Gruenenthal GmbH, priority 2000, published 2004).

System: anaesthetized naïve female rats
Experiment: Cystometry on anaesthetized naïve rats (suppression of rhythmic spontaneous bladder contractions)
Type: in vivo, rat
Conditions: i.v., cumulative administration; mean of the lowest dose of 3 independent experiments at which contractions are first absent over a period of 10 min
Description: The cystometric investigation of naïve female rats was carried out by the method of Kimura et al. (Kimura et al., 1996, Int. J. Urol. 3:218-227). The abdomen of anaesthetized ventilated rats is opened up and the ureter is tied off. The urine is drained from the kidneys. A catheter is inserted into the bladder and fixed. […] After stable starting values are reached, the test substance is administered i.v. in a cumulative manner. An influence on bladder function manifests itself via suppression of spontaneous contractions. The absence of contractions over a period of 10 min is used as an indication of suppression.
A suppression of spontaneous contractions in the rats was measurable with all the substances tested. Table II indicates the mean of the lowest dose of 3 independent experiments at which for the first time contractions are absent over a period of 10 min.

| SMILES | Lowest dose effective for suppression of contraction |
| --- | --- |
| CCOC(=O)[C@]1(c2ccccc2)CCC=C[C@H]1N(C)C (relative stereo) [Tilidine, trans-2-(dimethylamino)-1-phenyl-3-cyclohexene-1-carboxylic acid ethyl ester] | 0.5 (n = 3) mg/kg |
| COc1ccc2c3c1O[C@H]1[C@@H](O)C=C[C@H]4[C@@H](C2)N(C)CC[C@@]341 [Codeine (phosphate), (5a,6a)-7,8-didehydro-4,5-epoxy-3-methoxy-17-methylmorphinan-6-ol] | 4.7 (n = 3) mg/kg |
| CCC1(c2cccc(O)c2)CCCCN(C)C1 (stereo not drawn) [Meptazinol, 3-(3-ethylhexahydro-1-methyl-1H-azepin-3-yl)phenol] | 1.0 (n = 3) mg/kg |
